Where a SMILES comes first, the peptide text is derived from it. The star is where a group is joined. Cbz = O=C(OCc1ccccc1)*

The text below walks through data of patent publication US20120282646A1, “METHOD FOR ACTIVATING A NATURAL KILLER CELL BY ADJUSTING THE EXPRESSION OF THE SOCS2 GENE” (Korea Research Institute of Bioscience and Biotechnology, priority 2009, published 2012).

What all share (type): cell-based, human
Data set [1] relates to NK-92 cells. Description: Cytotoxicity of MAPK inhibitor-treated NK-92 cells against K562. Particulars: NK-92 cells treated with 10 mM inhibitor; compared with ERK and p38 inhibitors.
The subject of data set [2] is Pyk2. In words: GST pull down of GST-SOCS2 and Flag-Pyk2 in 293T cells. To be noted: MG132-containing medium vs general culture medium. On the procedure:
The GST expression vector and pFlag-Pyk2, or pGST-SOCS2 and pFlag-Pyk2 were cotransformed into 293T cells using Lipofectamin 2000 (Invitrogen, U.S.A.). After 4 hr of transformation, the medium was replaced to a general culture medium or MG132 (proteasome inhibitor)-containing medium, and […], cells were lysed. The each cell lysate was allowed to react with glutathione-sepharose bead (GE Healthcare, U.S.A.) at 4° C. for 4 hr. Western blot analysis was performed by the same method in Example <2-1> using anti-Flag primary antibody (Santa Cruz, U.S.A.) or anti-GST primary antibody (Santa Cruz, U.S.A.).

Data set [3] has as its system Pyk2. In words: Immunoprecipitation of Flag-Pyk2, GST-SOCS2 and HA-ubiquitin in 293T cells. Particulars: MG132-containing medium vs general culture medium. On the procedure: In order to determine whether SOCS2 inhibits the proteasome-mediated Pyk2 degradation or not, the following experiment was carried out. First of all, pGST-SOCS2, pFlag-Pyk2, and HA-ubiquitin (AddGene) were cotransformed into 293T cells using Lipofectamin 2000. After 4 hr of transformation, the medium was replaced to a general culture medium or MG132 (proteasome inhibitor)-containing medium, and 24 hr later, cells were lysed. The each cell lysate was allowed to react with anti-Flag antibody or anti-GST antibody. The antigen-antibody complexes were precipitated by incubation at 4° C. for 1 day with G-protein-conjugated agarose (Roshe, Switzerland). The immunoprecipitated complexes were washed with 1×PBS. Western blot analysis was performed by the same method in Example <2-1> using anti-GST antibody, anti-Flag antibody, or anti-HA antibody (Santa Cruz, U.S.A.).

Data set [4] deals with NK-92 cells. Description: socs2 mRNA expression by real time PCR in cytokine-treated NK-92 cells. The procedure:
NK cell differentiation is mediated by IL-15 (Interleukin 15) cytokine. To determine whether the SOCS2 upregulation following NK cell differentiation was induced by IL-15, the present inventors experimented on the IL-15-induced SOCS2 upregulation in mature NK cells. The experimented NK-92 human NK cells and primary NK cells live and proliferate in the condition where IL-15 exists. Accordingly, to measure the effect of IL-15, deprivation of IL-15 was carried out by culturing cells in a medium without IL-15 for 24 hr prior to IL-15 treatment, and then the medium was replaced with a medium containing 10 ng/mL IL-15 to make a cell differentiation condition. Real time PCR was carried out with NK-92 cells at 4, 8, 12, and 16th hr after the replacement of the medium using the same method in Example <3-1-1> to measure the amount of socs2 mRNA expression.
Specifically, each NK cell was collected and total RNA was extracted using Trizol Reagent (Invitrogen, U.S.A.). Then, 1 μg of the RNA was reverse transcribed into cDNA using reverse transcriptase superscript II (Invitrogen). […] Concurrently, using GAPDH (Glyceraldehyde-3-phosphate dehydrogenase) as a quantitative control, real time PCR was performed with GAPDH primer pair of Table 2. […]

Data set [5] relates to primary NK cells. Description: socs1, socs2, socs3 mRNA expression by real time PCR in IL-15-stimulated primary NK cells. Particulars: IL-15 stimulation after deprivation. The procedure:
Deprivation and IL-15 stimulation was carried out with primary NK cells using the same method in Example <2-2>. The amounts of mRNA expression of socs1, socs2 and socs3 were measured by real time PCR. Primers in Table 1 and Table 3 were used.
Specifically, each NK cell was collected and total RNA was extracted using Trizol Reagent (Invitrogen, U.S.A.). Then, 1 μg of the RNA was reverse transcribed into cDNA using reverse transcriptase superscript II (Invitrogen). Using the cDNA as template, real time PCR was performed with the 2×SYBR Premix Ex Taq™ (TaKaRa, Japan) and SOCS2 primer pairs of Table 2 (Exicycler version 2, Bioneer, Republic of Korea). Concurrently, using GAPDH (Glyceraldehyde-3-phosphate dehydrogenase) as a quantitative control, real time PCR was performed with GAPDH primer pair of Table 2. The PCR condition was as follows: denaturation of 10 min at 95° C.; 40 cycles of […], 30 sec at 60° C., and 1 min at 72° C.; and extension of 8 min at 72° C. followed by cooling to room temperature. After analyzing real time PCR data by the comparative CT (2^−ΔΔCt) method which normalizes the amount of socs2 expression of each sample to the amount of GAPDH expression, the relative amount of SOCS2 expression in differentiated NK cells at each day to the amount of socs2 expression in primary NK cells was shown as a graph in FIG. 1(a).
(Quantitative PCR measures a nucleic acid by following its amplification.)

The test system of data set [6] is NK-92 cells and primary NK cells. In words: SOCS2 protein expression by Western blot after IL-15 stimulation. Particulars: IL-15 stimulation after deprivation. On the procedure:
Each NK cell was lysed in RIPA buffer (50 mM Tris-HCl, pH 7.4, 150 mM NaCl, 0.25% SDS, 1% NP-40, 1 mM EDTA, a protease inhibitor cocktail, and a phosphate inhibitor cocktail) and the concentration of protein present in the whole cell lysate was determined using BCA Protein Assay Kit (Pierce, U.S.A.). 30 μg of each protein sample was resolved using 10 or 12% SDS-PAGE gel and transferred to an Immobilon-P membrane (Millipore Corporation, U.S.A.). The membrane was blocked with 5% skim milk and treated with anti-SOCS2 antibody (Santa Cruz, U.S.A.) as a primary antibody for 1 day at 4° C. HRP-conjugated anti-rabbit secondary antibody (Santa Cruz, U.S.A.) was attached to the primary antibody-treated membrane, and then, Immobilon Western Chemiluminescent HRP Substrate (Milipore Corporation) was added thereto. The membrane was exposed to X-ray film. As quantitative control, the amount of expression of GAPDH was examined using anti-GAPDH primary antibody (Santa Cruz, U.S.A.) by the above method. […]
In general terms: Immunoblotting shows a protein as a band on a membrane.

Data set [7] deals with NK-92 cells. In words: Western blot of SOCS2 and p-Pyk2Tyr402 after IL-15 in NK-92 cells. To be noted: IL-15 for 6, 12 or 24 hr. The procedure: (§1) Each NK cell was lysed in RIPA buffer (50 mM Tris-HCl, pH 7.4, 150 mM NaCl, 0.25% SDS, 1% NP-40, 1 mM EDTA, a protease inhibitor cocktail, and a phosphate inhibitor cocktail) and the concentration of protein present in the whole cell lysate was determined using BCA Protein Assay Kit (Pierce, U.S.A.). 30 μg of each protein sample was resolved using 10 or 12% SDS-PAGE gel and transferred to an Immobilon-P membrane (Millipore Corporation, U.S.A.). The membrane was blocked with 5% skim milk and treated with anti-SOCS2 antibody (Santa Cruz, U.S.A.) as a primary antibody for 1 day at 4° C. HRP-conjugated anti-rabbit secondary antibody (Santa Cruz, U.S.A.) was attached to the primary antibody-treated membrane, and then, Immobilon Western Chemiluminescent HRP Substrate (Milipore Corporation) was added thereto. The membrane was exposed to X-ray film. As quantitative control, the amount of expression of GAPDH was examined using anti-GAPDH primary antibody (Santa Cruz, U.S.A.) by the above method.
To assess how SOCS2 which binds with p-Pyk2^Tyr402 in NK cells regulates Pyk2, the following experiment was carried out. With NK-92 cells cultured without or with IL-15 for 6, 12 or 24 hr using the same method in Example <2-2>, Western blot analysis was carried out using the same method in Example <2-1> with anti-SOCS2 antibody, anti-p-Pyk2^Tyr402 antibody, anti-Pyk2 antibody and anti-GAPDH antibody. […]

The subject of data set [8] is primary NK cells. In words: Western blot of SOCS2 and p-Pyk2Tyr402 after IL-15 in primary NK cells. To be noted: primary NK cells with or without IL-15. On the procedure: as §1
NK cells cultured without or with IL-15, Western blot analysis was carried out using the same method in Example <2-1> with anti-SOCS2 antibody, anti-p-Pyk2^Tyr402 antibody, anti-Pyk2 antibody and anti-GAPDH antibody.

Data set [9] concerns Pyk2. In words: Immunoprecipitation for ubiquitination of Pyk2 after IL-15 in NK-92 cells. To be noted: NK-92 cells stimulated with IL-15, anti-Pyk2 immunoprecipitation. On the procedure:
To determine whether the decrease in p-Pyk2^Tyr402 by SOCS2 expression, confirmed in Example <13> resulted from the ubiquitin-mediated proteasomal degradation of p-Pyk2^Tyr402 by increased SOCS2 by IL-15, the following experiment was carried out. NK-92 cells stimulated with IL-15 as in Example <2-2> were lysed and the cell lysates were allowed to react with anti-Pyk2 antibody. The antigen-antibody complexes were precipitated by incubation at 4° C. for 1 day with G-protein-conjugated agarose. The immunoprecipitated complexes were washed with 1×PBS. Western blot analysis was performed by the same method in Example <2-1> using anti-ubiquitin antibody (Santa Cruz, U.S.A.), anti-SOCS2 antibody, anti-p-Pyk2^Tyr402 antibody, anti-Pyk2 antibody, and anti-GAPDH antibody.

Data set [10] has as its system SOCS2. In words: SOCS2 protein knockdown by siRNA, Western blot. To be noted: primary NK cells transduced with siRNA, IL-15 stimulation 16 hr. On the procedure:
as §1
IL-15 is an essential cytokine for NK cell differentiation. With SOCS2 expression inhibited, the present inventors measured the NK cell differentiation by IL-15 stimulation. […] Concurrently, β-actin expression was also observed by using anti-β-actin primary antibody (Santa Cruz, U.S.A.) as a quantitative control.

The test system of data set [11] is primary NK cells. Description: NK cell differentiation, CD-56 expression by FACS. Particulars: primary NK cells transduced with siRNA, day 2, 3, 5, IL-15 stimulation. On the procedure:
Also, to determine whether the inhibition of SOCS2 expression affected the NK cell differentiation or not, primary NK cells were transduced with siRNA and CD-56 expression was measured by performing FACS on the cells at 2, 3, and 5th day.
For orientation: In flow cytometry, cells or beads pass a laser one at a time.

On to `Oc1c2ccccc2c2c3c(cccc13)N=N2` [JNK inhibitor, SP600125], for which the “cytotoxicity against the K562 cancer cell line” value in data set [1] is “most significantly reduced”.

`CC(C)C[C@@H](C=O)NC(=O)[C@H](CC(C)C)NC(=O)[C@H](CC(C)C)NC(=O)OCc1ccccc1` [MG132] (Cbz-Leu-Leu-Leu-aldehyde): in data set [2], the “Flag band (Flag-Pyk2) in GST pull down” value is reported as “significantly large Flag band”. Further, the “GST band and HA (ubiquitin) bands in anti-Flag immunoprecipitate” value in [3] was “significantly large GST band and more HA bands”.

With “IL-15: cytokine priming NK cell differentiation (Peprotech)”, the “SOCS2 expression (socs2 mRNA)” value in [4] (NK-92 cells deprived of IL-15 24 hr, then 10 ng/mL IL-15, 4, 8, 12, 16 hr) was “SOCS2 expression increased in NK-92 cells”. Besides, the “SOCS2 expression (mRNA), specificity among cytokines” value in [4] (deprived NK-92 cells, 30 ng/mL IL7, IL-12, IL-15, IL-18, IL-21 for 16 hr) is “SOCS2 expression was induced specifically by IL-15 stimulation”. In addition, the “mRNA expression of socs1, socs2 and socs3” value in data set [5] is reported as “only socs2 mRNA expression among SOCS family members increased”. In addition, the SOCS2 protein expression result in data set [6] was “IL-15 stimulated SOCS2 expression was observed in both NK-92 cells and primary NK cells”. In [7], the SOCS2 expression result is “increased in an IL-15 stimulation time-dependent manner” and the “phosphorylation of tyrosine 402 in Pyk2” value was “decreased”. Further, in data set [8], the “expression of SOCS2 and phosphorylation of Pyk2” value is “induced the expression of SOCS2 and the decrease in the phosphorylation of Pyk2”. Also, in data set [9], the “phosphorylation of Pyk2” value is recorded as “phosphorylation of Pyk2 decreased” and the “ubiquitination of Pyk2” value was “ubiquitination of Pyk2 increased”.

Consider “SOCS2 siRNA: SOCS2 siRNA (Dharmacon, SEQ ID NO.12: 5′-CGACUACUAUGUUCAGAUG-3′) (listed as RNA, chemistry not given here)”, for which the SOCS2 protein expression entry in data set [10] is “SOCS2 protein expression was inhibited”. Further, in [11], the “CD-56 expression (NK cell differentiation)” value is “increased CD-56 expression similarly regardless of whether SOCS2 protein was expressed or not”.
